Results from PubChem BioAssay AID2060907 (Molecular Pharmacology Branch, DTP, NCI, 2025).
One block for each compound: values may come before it.

System: 388556-164-R-J1-PDC complex spheroid viability
Experiment: Anticancer human tumor 388556-164-R-J1-PDC patient-derived colon adenocarcinoma cell line growth inhibition [RAS]
Settings: for IC50: curve of first compound; for viability, T/C: stronger effect = lower value
From the text: RAS pathway inhibitors in Combinations in Complex Spheroids
A high-throughput screen of multi-cell type tumor spheroids was designed to identify active combinations of RAS pathway inhibitors and targeted small molecules. Complex spheroids include a stromal component modeled by human endothelial cells (HUVEC) and fibroblasts modeled by human mesenchymal stem cells (MSCs). The concentration ranges selected for each drug and investigational agent were based upon clinically achievable concentrations if the clinical Cmax of the agent was known.
Compounds. The drugs and investigational agents: abemaciclib (NSC768073), cobimetinib (NSC768068), divarasib (GDC6063, NSC841802), docetaxel (NSC628503), GDC-1971 (RLY-1971, NSC841576), gemcitabine (NSC613327), inavolisib (NSC800729), ipatasertib (NSC767898), KB-0742 (NSC834161), MRTX-1133 (NSC836407), osimertinib (NSC779217), RMC-4630 (NSC839698), RMC-6236 (NSC851965), RMC-6291 (NSC852671), Ro-3306 (NSC812927), sapanisertib (NSC764658), SN-38 (NSC673596), staurosporine (NSC755774), SY5609 (NSC837396), and tovorafenib (DAY101, NSC766906), were obtained from the National Cancer Institute (NCI) Developmental Therapeutics Program Chemical Repository. The FDA-approved anticancer drug set is available from the NCI Developmental Therapeutics Program. […] The stock solutions were prepared in dimethyl sulfoxide (DMSO, Sigma-Aldrich, St. Louis, MO, cat. D2650) at 800-fold the tested concentration and stored at -70 degrees C prior to their use. All drugs and investigational agents were tested over a range starting from a high concentration at or near the clinical Cmax and decreasing in half-log increments. If the clinical Cmax for an agent had not been determined, the highest concentration tested was 10 microM.
Cell Culture. All cells were maintained in an incubator at 37 degrees C and 5% CO2 with 95% humidity. The PDC lines were cultured according to standard operating procedures established by the NCI PDMR. All PDCs were thawed and cultured in Matrigel-coated flasks prepared with a working solution of 1X Ham's F-12 nutrient mix, without supplementation (Invitrogen, Waltham, MA, cat. 11765054), 100 U/mL penicillin-streptomycin (Invitrogen, cat. 15140122), and 2.5% Matrigel (Corning Inc., Corning, NY, cat. 354248) for the first three passages. The 362531-283-R-J2-PDC and 782815-120-R-J1-PDC lines were cultured in 6C/Colon 1B media, which includes advanced DMEM/F-12 (Thermo Fisher Scientific, cat. 12634028), 10 mM HEPES (Thermo Fisher Scientific, cat. 15630080), 1X GlutaMAX supplement (Thermo Fisher Scientific, cat. 35050061), 0.1 mg/mL primocin (InvivoGen, San Diego, CA, cat. ant-pm-2), 10% defined fetal bovine serum, heat inactivated (HyClone Laboratories Inc., Logan, UT, cat. SH30070.03HI), 50% L-WRN conditioned media (ATCC, cat. CRL-3276), 1.25 mM N-Acetyl-L-cysteine (Sigma-Aldrich, cat. A9165), 10 mM nicotinamide (Sigma-Aldrich, cat. N0636), 1X B-27 supplement (Thermo Fisher Scientific, cat. 17504044), 1X N-2 supplement (Thermo Fisher Scientific, cat. 17502048), 50 ng/mL human EGF (Thermo Fisher Scientific, cat. PHG0311), and 10 microM Y-27632 dihydrochloride (Tocris Bioscience, cat. 1254). The K12877-001-R-J1-PDC line was cultured in 6I media, which includes all 6C/Colon 1B media plus 10 ng/mL human FGF-10 (PeproTech, cat. 100-26), 1 ng/mL human FGF-2 (PeproTech, cat. 100-18B), 1 µM prostaglandin E2 (Tocris Bioscience, cat. 2296), […] hydrocortisone (Sigma-Aldrich, cat. H4001), and […] bovine insulin (Sigma-Aldrich, cat. I6634). The K86415-001-R-J1-PDC line was cultured in 6D media, which includes all 6C/Colon 1B media components minus the L-WRN conditioned media. The 485176-168-R4-J1-PDC was cultured in PANC media, which includes all 6C/Colon 1B media plus 100 ng/mL human FGF-10 (PeproTech, cat. 100-26), 500 nM SB-431542 (Selleckchem, cat. S1067), and 10 nM gastrin (Tocris Bioscience, cat. 3006). […]

[1] = second compound 0.0316 µM, first compound 0.0316 µM
[2] = second compound 0.0316 µM, first compound 0.1 µM
[3] = second compound 0.0316 µM, first compound 0.316 µM
[4] = second compound 0.0316 µM, first compound 1 µM
[5] = second compound 0.0316 µM, first compound 3.16 µM
[6] = second compound 0.0316 µM, first compound 10 µM
[7] = second compound 0.1 µM, first compound 0.0316 µM
[8] = second compound 0.1 µM, first compound 0.1 µM
[9] = second compound 0.1 µM, first compound 0.316 µM
[10] = second compound 0.1 µM, first compound 1 µM
[11] = second compound 0.1 µM, first compound 3.16 µM
[12] = second compound 0.1 µM, first compound 10 µM
[13] = second compound 0.316 µM, first compound 0.0316 µM
[14] = second compound 0.316 µM, first compound 0.1 µM
[15] = second compound 0.316 µM, first compound 0.316 µM
[16] = second compound 0.316 µM, first compound 1 µM
[17] = second compound 0.316 µM, first compound 3.16 µM
[18] = second compound 0.316 µM, first compound 10 µM
[19] = second compound 1 µM, first compound 0.0316 µM
[20] = second compound 1 µM, first compound 0.1 µM
[21] = second compound 1 µM, first compound 0.316 µM
[22] = second compound 1 µM, first compound 1 µM
[23] = second compound 1 µM, first compound 3.16 µM
[24] = second compound 1 µM, first compound 10 µM
[25] = second compound 3.16 µM, first compound 0.0316 µM
[26] = second compound 3.16 µM, first compound 0.1 µM
[27] = second compound 3.16 µM, first compound 0.316 µM
[28] = second compound 3.16 µM, first compound 1 µM
[29] = second compound 3.16 µM, first compound 3.16 µM
[30] = second compound 3.16 µM, first compound 10 µM
[31] = second compound 10 µM, first compound 0.0316 µM
[32] = second compound 10 µM, first compound 0.1 µM
[33] = second compound 10 µM, first compound 0.316 µM
[34] = second compound 10 µM, first compound 1 µM
[35] = second compound 10 µM, first compound 3.16 µM
[36] = second compound 10 µM, first compound 10 µM
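Also: spheroids exposed to compound for 7 days before readout.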
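For viability, T/C in this document: 100% = DMSO vehicle control luminescence.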

IC50 (second compound 0.0316 µM): > 10000 nM | IC50 (second compound 0.1 µM): > 10000 nM | IC50 (second compound 0.316 µM): > 10000 nM | IC50 (second compound 1 µM): > 10000 nM | IC50 (second compound 3.16 µM): > 10000 nM | IC50 (second compound 10 µM): 8860 nM
SMILES: CC(C)NCC(C(=O)N1CCN(c2ncnc3c2C(C)CC3O)CC1)c1ccc(Cl)cc1 (stereo unspecified) + C#Cc1c(F)ccc2cc(O)cc(-c3ncc4c(N5CC6CCC(C5)N6)nc(OCC56CCCN5CC(F)C6)nc4c3F)c12
viability, T/C [1]: 95.9% | viability, T/C [2]: 106% | viability, T/C [3]: 109% | viability, T/C [4]: 98.6% | viability, T/C [5]: 99.2% | viability, T/C [6]: 100% | viability, T/C [7]: 98.5% | viability, T/C [8]: 107% | viability, T/C [9]: 99.7% | viability, T/C [10]: 96% | viability, T/C [11]: 113% | viability, T/C [12]: 93.6% | viability, T/C [13]: 99% | viability, T/C [14]: 105% | viability, T/C [15]: 88.5% | viability, T/C [16]: 99.2% | viability, T/C [17]: 107% | viability, T/C [18]: 82.3% | viability, T/C [19]: 95.5% | viability, T/C [20]: 93.1% | viability, T/C [21]: 69.4% | viability, T/C [22]: 92.1% | viability, T/C [23]: 93.5% | viability, T/C [24]: 77.8% | viability, T/C [25]: 80.6% | viability, T/C [26]: 66.6% | viability, T/C [27]: 75.9% | viability, T/C [28]: 83.8% | viability, T/C [29]: 88.4% | viability, T/C [30]: 59.4% | viability, T/C [31]: 69.2% | viability, T/C [32]: 67.3% | viability, T/C [33]: 73.2% | viability, T/C [34]: 87.2% | viability, T/C [35]: 42% | viability, T/C [36]: 53.3%

IC50 (second compound 0.0316 µM): 98.5 nM | IC50 (second compound 0.1 µM): 78.5 nM | IC50 (second compound 0.316 µM): 48.7 nM | IC50 (second compound 1 µM): 41.6 nM | IC50 (second compound 3.16 µM): 39.2 nM | IC50 (second compound 10 µM): 10.6 nM
SMILES: CC(C)n1nc(-c2ccc3oc(N)nc3c2)c2c(N)ncnc21 + C#Cc1c(F)ccc2cc(O)cc(-c3ncc4c(N5CC6CCC(C5)N6)nc(OCC56CCCN5CC(F)C6)nc4c3F)c12
viability, T/C (second compound 0.0316 µM, first compound 0.000316 µM): 98.6% | viability, T/C (second compound 0.0316 µM, first compound 0.001 µM): 97.7% | viability, T/C (second compound 0.0316 µM, first compound 0.00316 µM): 89.9% | viability, T/C (second compound 0.0316 µM, first compound 0.01 µM): 75.7% | viability, T/C [1]: 64% | viability, T/C [2]: 49.4% | viability, T/C (second compound 0.1 µM, first compound 0.000316 µM): 95.7% | viability, T/C (second compound 0.1 µM, first compound 0.001 µM): 99.7% | viability, T/C (second compound 0.1 µM, first compound 0.00316 µM): 90.6% | viability, T/C (second compound 0.1 µM, first compound 0.01 µM): 78.5% | viability, T/C [7]: 62.6% | viability, T/C [8]: 46.6% | viability, T/C (second compound 0.316 µM, first compound 0.000316 µM): 91.6% | viability, T/C (second compound 0.316 µM, first compound 0.001 µM): 97.1% | viability, T/C (second compound 0.316 µM, first compound 0.00316 µM): 79.5% | viability, T/C (second compound 0.316 µM, first compound 0.01 µM): 79.5% | viability, T/C [13]: 56% | viability, T/C [14]: 37.8% | viability, T/C (second compound 1 µM, first compound 0.000316 µM): 90.5% | viability, T/C (second compound 1 µM, first compound 0.001 µM): 88% | viability, T/C (second compound 1 µM, first compound 0.00316 µM): 69.9% | viability, T/C (second compound 1 µM, first compound 0.01 µM): 71.5% | viability, T/C [19]: 55.6% | viability, T/C [20]: 35.5% | viability, T/C (second compound 3.16 µM, first compound 0.000316 µM): 82.2% | viability, T/C (second compound 3.16 µM, first compound 0.001 µM): 74.4% | viability, T/C (second compound 3.16 µM, first compound 0.00316 µM): 68.5% | viability, T/C (second compound 3.16 µM, first compound 0.01 µM): 73.5% | viability, T/C [25]: 52.3% | viability, T/C [26]: 31.4% | viability, T/C (second compound 10 µM, first compound 0.000316 µM): 74.6% | viability, T/C (second compound 10 µM, first compound 0.001 µM): 59.9% | viability, T/C (second compound 10 µM, first compound 0.00316 µM): 60.1% | viability, T/C (second compound 10 µM, first compound 0.01 µM): 53.3% | viability, T/C [31]: 40.3% | viability, T/C [32]: 29.9%

IC50 (second compound 0.0316 µM): > 10000 nM | IC50 (second compound 0.1 µM): > 10000 nM | IC50 (second compound 0.316 µM): > 10000 nM | IC50 (second compound 1 µM): 8110 nM | IC50 (second compound 3.16 µM): 2960 nM | IC50 (second compound 10 µM): 1040 nM
SMILES: CC(Nc1ccc2c(c1)OCCn1cc(N3C(=O)OCC3C(F)F)nc1-2)C(N)=O (stereo unspecified) + C#Cc1c(F)ccc2cc(O)cc(-c3ncc4c(N5CC6CCC(C5)N6)nc(OCC56CCCN5CC(F)C6)nc4c3F)c12
viability, T/C [1]: 94.9% | viability, T/C [2]: 95.5% | viability, T/C [3]: 94% | viability, T/C [4]: 78.8% | viability, T/C [5]: 76.6% | viability, T/C [6]: 66.6% | viability, T/C [7]: 93.6% | viability, T/C [8]: 90.7% | viability, T/C [9]: 83.3% | viability, T/C [10]: 81% | viability, T/C [11]: 77% | viability, T/C [12]: 62.3% | viability, T/C [13]: 94.8% | viability, T/C [14]: 84.3% | viability, T/C [15]: 74.2% | viability, T/C [16]: 69.9% | viability, T/C [17]: 72% | viability, T/C [18]: 51.9% | viability, T/C [19]: 82.1% | viability, T/C [20]: 89.9% | viability, T/C [21]: 58.1% | viability, T/C [22]: 69.4% | viability, T/C [23]: 69.2% | viability, T/C [24]: 43.6% | viability, T/C [25]: 82.4% | viability, T/C [26]: 63.2% | viability, T/C [27]: 64.2% | viability, T/C [28]: 59.5% | viability, T/C [29]: 53.3% | viability, T/C [30]: 38.4% | viability, T/C [31]: 59.4% | viability, T/C [32]: 57.2% | viability, T/C [33]: 55.1% | viability, T/C [34]: 50.8% | viability, T/C [35]: 29.5% | viability, T/C [36]: 31.1%
